Test results taken from PubChem BioAssay (NCI).
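Method: 48-hour compound exposure of cells in 96-well plates, five concentrations, linear interpolation of endpoints. GI50: concentration for 50% inhibition of growth. Definition used: TGI = concentration required for complete inhibition of growth.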

How the values were obtained:
Experiment in all cases: NCI tumour cell line growth inhibition, 48 h
KM12 colon = tested on: KM12 colon
SF-539 CNS = tested on: SF-539 CNS
OVCAR-4 ovarian = tested on: OVCAR-4 ovarian
CAKI-1 renal = tested on: CAKI-1 renal
PC-3 prostate = tested on: PC-3 prostate
RPMI-8226 leukemia = tested on: RPMI-8226 leukemia
HOP-92 NSCLC = tested on: HOP-92 NSCLC
COLO 205 colon = tested on: COLO 205 colon
HOP-62 NSCLC = tested on: HOP-62 NSCLC
OVCAR-8 ovarian = tested on: OVCAR-8 ovarian
LOX IMVI melanoma = tested on: LOX IMVI melanoma
SN12C renal = tested on: SN12C renal
K-562 leukemia = tested on: K-562 leukemia
MOLT-4 leukemia = tested on: MOLT-4 leukemia
SF-295 CNS = tested on: SF-295 CNS
A549 NSCLC = tested on: A549 NSCLC
EKVX NSCLC = tested on: EKVX NSCLC
HL-60(TB) leukemia = tested on: HL-60(TB) leukemia
M14 melanoma = tested on: M14 melanoma
786-0 renal = tested on: 786-0 renal
SK-OV-3 ovarian = tested on: SK-OV-3 ovarian
UACC-257 melanoma = tested on: UACC-257 melanoma
CCRF-CEM leukemia = tested on: CCRF-CEM leukemia
MALME-3M melanoma = tested on: MALME-3M melanoma
OVCAR-5 ovarian = tested on: OVCAR-5 ovarian
SK-MEL-2 melanoma = tested on: SK-MEL-2 melanoma
SK-MEL-5 melanoma = tested on: SK-MEL-5 melanoma
MDA-MB-231 breast = tested on: MDA-MB-231 breast
ACHN renal = tested on: ACHN renal
U251 CNS = tested on: U251 CNS
NCI-H522 lung = tested on: NCI-H522 lung
NCI-H23 lung = tested on: NCI-H23 lung
DU-145 prostate = tested on: DU-145 prostate
T-47D breast = tested on: T-47D breast
BT-549 breast = tested on: BT-549 breast
SW-620 colon = tested on: SW-620 colon
SR leukemia = tested on: SR leukemia
HT29 colon = tested on: HT29 colon
A498 renal = tested on: A498 renal
HCT-15 colon = tested on: HCT-15 colon
HCT-116 colon = tested on: HCT-116 colon
UO-31 renal = tested on: UO-31 renal
SF-268 CNS = tested on: SF-268 CNS
NCI-H460 lung = tested on: NCI-H460 lung
RXF 393 renal = tested on: RXF 393 renal
IGROV1 ovarian = tested on: IGROV1 ovarian
HCC-2998 colon = tested on: HCC-2998 colon
SNB-75 CNS = tested on: SNB-75 CNS
UACC-62 melanoma = tested on: UACC-62 melanoma
MCF7 breast = tested on: MCF7 breast
HS 578T breast = tested on: HS 578T breast
MDA-MB-435 = tested on: MDA-MB-435
OVCAR-3 ovarian = tested on: OVCAR-3 ovarian
NCI/ADR-RES ovarian = tested on: NCI/ADR-RES ovarian
NCI-H226 lung = tested on: NCI-H226 lung
SK-MEL-28 melanoma = tested on: SK-MEL-28 melanoma
SNB-19 CNS = tested on: SNB-19 CNS
TK-10 renal = tested on: TK-10 renal

In the case of COc1ccc(/C=C\c2cc(OC)c(OC)c(OC)c2)cc1OCC(=O)Nc1nc2ccccc2s1, the GI50 (KM12 colon) was 0.0646 µM, the TGI (KM12 colon) was > 100 µM and the GI50 (SF-539 CNS) was 0.187 µM. For the same molecule, the TGI (SF-539 CNS) was > 100 µM, the GI50 (OVCAR-4 ovarian) was 0.476 µM and the TGI (OVCAR-4 ovarian) was > 100 µM. The GI50 (CAKI-1 renal) was 0.309 µM, the TGI (CAKI-1 renal) was > 35.8 µM and the GI50 (PC-3 prostate) was 0.183 µM. The TGI (PC-3 prostate) was > 100 µM, the GI50 (RPMI-8226 leukemia) was 0.683 µM and the TGI (RPMI-8226 leukemia) was > 100 µM. The GI50 (HOP-92 NSCLC) was 0.204 µM, the TGI (HOP-92 NSCLC) was > 31.1 µM and the GI50 (COLO 205 colon) was 3.26 µM. For the same molecule, the TGI (COLO 205 colon) was > 49.5 µM, the GI50 (HOP-62 NSCLC) was 0.298 µM and the TGI (HOP-62 NSCLC) was > 100 µM. The GI50 (OVCAR-8 ovarian) was 0.257 µM, the TGI (OVCAR-8 ovarian) was > 100 µM and the GI50 (LOX IMVI melanoma) was 0.0808 µM. For the same molecule, the TGI (LOX IMVI melanoma) was > 100 µM, the GI50 (SN12C renal) was 0.431 µM and the TGI (SN12C renal) was > 100 µM. For the same molecule, the GI50 (K-562 leukemia) was 0.0423 µM, the TGI (K-562 leukemia) was > 100 µM and the GI50 (MOLT-4 leukemia) was 0.366 µM. The TGI (MOLT-4 leukemia) was > 100 µM, the GI50 (SF-295 CNS) was 0.22 µM and the TGI (SF-295 CNS) was 0.646 µM. For the same molecule, the GI50 (A549 NSCLC) was 0.31 µM, the TGI (A549 NSCLC) was > 100 µM and the GI50 (EKVX NSCLC) was 3.65 µM. For the same molecule, the TGI (EKVX NSCLC) was > 100 µM, the GI50 (HL-60(TB) leukemia) was 0.0275 µM and the TGI (HL-60(TB) leukemia) was > 100 µM. For the same molecule, the GI50 (M14 melanoma) was 0.0527 µM, the TGI (M14 melanoma) was > 100 µM and the GI50 (786-0 renal) was 6.23 µM. For the same molecule, the TGI (786-0 renal) was > 100 µM, the GI50 (SK-OV-3 ovarian) was 0.374 µM and the TGI (SK-OV-3 ovarian) was > 100 µM. For the same molecule, the GI50 (UACC-257 melanoma) was 11 µM, the TGI (UACC-257 melanoma) was > 100 µM and the GI50 (CCRF-CEM leukemia) was 0.134 µM. For the same molecule, the TGI (CCRF-CEM leukemia) was > 100 µM, the GI50 (MALME-3M melanoma) was 0.338 µM and the TGI (MALME-3M melanoma) was > 85.3 µM. For the same molecule, the GI50 (OVCAR-5 ovarian) was 31.9 µM, the TGI (OVCAR-5 ovarian) was > 100 µM and the GI50 (SK-MEL-2 melanoma) was 0.187 µM. The TGI (SK-MEL-2 melanoma) was > 100 µM, the GI50 (SK-MEL-5 melanoma) was 0.0405 µM and the TGI (SK-MEL-5 melanoma) was 0.263 µM. The GI50 (MDA-MB-231 breast) was 0.179 µM, the TGI (MDA-MB-231 breast) was > 100 µM and the GI50 (ACHN renal) was 0.107 µM. For the same molecule, the TGI (ACHN renal) was > 100 µM, the GI50 (U251 CNS) was 0.0416 µM and the TGI (U251 CNS) was > 32.9 µM. For the same molecule, the GI50 (NCI-H522 lung) was 0.049 µM, the TGI (NCI-H522 lung) was 0.338 µM and the GI50 (NCI-H23 lung) was 0.0966 µM. For the same molecule, the TGI (NCI-H23 lung) was > 100 µM, the GI50 (DU-145 prostate) was 0.14 µM and the TGI (DU-145 prostate) was > 100 µM. The GI50 (T-47D breast) was 1.59 µM, the TGI (T-47D breast) was > 69.6 µM and the GI50 (BT-549 breast) was 0.303 µM. The TGI (BT-549 breast) was > 100 µM, the GI50 (SW-620 colon) was 0.0359 µM and the TGI (SW-620 colon) was > 100 µM. For the same molecule, the GI50 (SR leukemia) was 0.0363 µM, the TGI (SR leukemia) was > 100 µM and the GI50 (HT29 colon) was 2.72 µM. For the same molecule, the TGI (HT29 colon) was > 48.9 µM, the GI50 (A498 renal) was 0.346 µM and the TGI (A498 renal) was > 83.4 µM. For the same molecule, the GI50 (HCT-15 colon) was 0.0519 µM, the TGI (HCT-15 colon) was > 100 µM and the GI50 (HCT-116 colon) was 0.0439 µM. The TGI (HCT-116 colon) was > 100 µM, the GI50 (UO-31 renal) was 0.381 µM and the TGI (UO-31 renal) was > 100 µM. For the same molecule, the GI50 (SF-268 CNS) was 0.23 µM, the TGI (SF-268 CNS) was > 100 µM and the GI50 (NCI-H460 lung) was 0.0476 µM. The TGI (NCI-H460 lung) was > 100 µM, the GI50 (RXF 393 renal) was 0.0503 µM and the TGI (RXF 393 renal) was 79.9 µM. The GI50 (IGROV1 ovarian) was 0.221 µM, the TGI (IGROV1 ovarian) was > 81.4 µM and the GI50 (HCC-2998 colon) was 0.447 µM. For the same molecule, the TGI (HCC-2998 colon) was > 100 µM, the GI50 (SNB-75 CNS) was 0.109 µM and the TGI (SNB-75 CNS) was > 100 µM. The GI50 (UACC-62 melanoma) was 0.0587 µM, the TGI (UACC-62 melanoma) was > 100 µM and the GI50 (MCF7 breast) was 0.113 µM. For the same molecule, the TGI (MCF7 breast) was > 100 µM, the GI50 (HS 578T breast) was 26 µM and the TGI (HS 578T breast) was > 100 µM.

N#Cc1ccc2[nH]c3c(c2c1)CC(=O)Nc1ccccc1-3 was tested, and the TGI (MDA-MB-435) was > 100 µM, the TGI (SF-539 CNS) was > 100 µM and the TGI (OVCAR-3 ovarian) was > 100 µM. For the same molecule, the TGI (OVCAR-4 ovarian) was > 100 µM, the TGI (CAKI-1 renal) was > 100 µM and the TGI (PC-3 prostate) was > 100 µM. The TGI (RPMI-8226 leukemia) was > 100 µM, the TGI (HOP-92 NSCLC) was > 100 µM and the TGI (COLO 205 colon) was > 100 µM. For the same molecule, the TGI (HOP-62 NSCLC) was > 100 µM, the TGI (OVCAR-8 ovarian) was > 100 µM and the TGI (LOX IMVI melanoma) was > 100 µM. For the same molecule, the TGI (K-562 leukemia) was > 100 µM, the TGI (MOLT-4 leukemia) was > 100 µM and the TGI (SF-295 CNS) was > 100 µM. The TGI (A549 NSCLC) was > 100 µM, the TGI (NCI/ADR-RES ovarian) was > 100 µM and the TGI (EKVX NSCLC) was > 100 µM. For the same molecule, the TGI (HL-60(TB) leukemia) was > 100 µM, the TGI (M14 melanoma) was > 100 µM and the TGI (786-0 renal) was > 100 µM. For the same molecule, the TGI (UACC-257 melanoma) was > 100 µM, the TGI (CCRF-CEM leukemia) was > 100 µM and the TGI (OVCAR-5 ovarian) was > 100 µM. The TGI (NCI-H226 lung) was > 100 µM, the TGI (SK-MEL-2 melanoma) was > 100 µM and the TGI (SK-MEL-5 melanoma) was > 100 µM. For the same molecule, the TGI (MDA-MB-231 breast) was > 100 µM, the TGI (ACHN renal) was > 100 µM and the TGI (U251 CNS) was > 100 µM. The TGI (NCI-H522 lung) was > 100 µM, the TGI (NCI-H23 lung) was > 100 µM and the TGI (T-47D breast) was > 100 µM. For the same molecule, the TGI (BT-549 breast) was > 100 µM, the TGI (SW-620 colon) was > 100 µM and the TGI (SK-MEL-28 melanoma) was > 100 µM. The TGI (SR leukemia) was > 100 µM, the TGI (HT29 colon) was > 100 µM and the TGI (A498 renal) was > 100 µM. The TGI (HCT-15 colon) was > 100 µM, the TGI (HCT-116 colon) was > 100 µM and the TGI (UO-31 renal) was > 100 µM. The TGI (SF-268 CNS) was > 100 µM, the TGI (NCI-H460 lung) was > 100 µM and the TGI (RXF 393 renal) was > 100 µM. For the same molecule, the TGI (SNB-19 CNS) was > 100 µM, the TGI (TK-10 renal) was > 100 µM and the TGI (IGROV1 ovarian) was > 100 µM. For the same molecule, the TGI (HCC-2998 colon) was > 100 µM, the TGI (SNB-75 CNS) was > 100 µM and the TGI (UACC-62 melanoma) was > 100 µM. The TGI (MCF7 breast) was > 100 µM and the TGI (HS 578T breast) was > 100 µM.
